Data set [1] relates to Staphylococcus aureus ATCC25923. The data set can be described thus: Bacterial growth inhibition (MIC) test, microtiter plate, CLSI protocol. It counts as cell-based.
The subject of data set [2] is Fusarium graminearum B4-5A. Description: microbe, parasite or virus in culture. It counts as cell-based. The settings on record: F. graminearum B4-5A; RPMI 1640, 35° C., 48 hour.
Data set [3] relates to Escherichia coli ATCC 25922. Description: Bacterial growth inhibition (MIC) test, microtiter plate, CLSI protocol. Type of data set: cell-based. The settings on record: E. coli 25922; Luria-Bertani medium, 37° C., 24 hours.
A further data set has as its system HeLa cells. Description: Cell viability assay (MTT), cytotoxicity test. Type of data set: cell-based, human. Particulars: for Viable Cells Percentage Compared to Control: MTT. As for the experimental part: HeLa cells were grown in commercial DMEM 1× (Gibco) with 10% fetal bovine serum (FBS, Gibco), 100 U/mL penicillin, and 100 μg/mL streptomycin at 37° C. and 5% CO2. The cells were allowed to adhere for 24 h before drug treatment.
The cells were seeded in 96-well microtiter plates (10,000/200 μL). After 24 h of incubation in the media, cells were treated with various concentrations of K608, K4608 and K408 (0.0, 1.0, 10.0, 100.0, 1000 μg/mL and Trition 1×) for 48 h. 20 μL of MTT stock solution (5 mg/mL) was added to each well and incubated for 4 h at 37° C. Upon completion of incubation, the media was carefully removed and washed twice with […] of pbs buffer. Then, 200 μL of DMSO was added to each well; agitated on orbital shaker for 15 min., and the absorbance at 570 nm with 670 nm filter was determined with a microplate reader (Synergy H4). The results are expressed as viability compared with that of control. The experiment was carried out in triplicate in three independent experiments.

For data set [4], the system named is azole-resistant Candida albicans ATCC 64124. The data set can be described thus: Antifungal synergism by checkerboard analysis, K-compound and azole combinations. It counts as cell-based. The settings on record: for MIC alone: K408 checkerboard table; for MIC alone / MIC: compound alone; for MIC K408 with azole: MIC of K408 when combined with the labelled azole; for MIC with K408: MIC of the labelled azole when combined with K408; for MIC with K4608: MIC of the labelled azole when combined with K4608; for FIC Index (K408 with azole): combination of K408 with the labelled azole; for FIC Index (K408 with azole) / FIC Index (K4608 with azole): synergistic if ≦0.5, indifferent if >0.5-4, antagonistic if >4; for FIC Index (K4608 with azole): combination of K4608 with the labelled azole; for MIC: Candida albicans.

The mark [5] stands for this setting: S. aureus 25923, 37° C., 24 hours.
Setting [6] is: first of two separate experiments.
The mark [7] stands for this setting: second of two separate experiments.
Setting [8] is: ATCC64124, K408 checkerboard table, first of two separate experiments.
Setting [9] is: ATCC64124, K408 checkerboard table, second of two separate experiments.
[10] abbreviates: ATCC64124, K4608 checkerboard table.

This is an account of results in patent US20160060285A1, “Aminoglycosides, Methods of Synthesis, and Associated Applications” (UTAH STATE UNIVERSITY, priority 2010, published 2016).

The structures appear in SMILES notation. Read-outs that look alike come from different tables or passages of the source.

Turning to `CCCCOC1C(CO)OC(OC2C(N)CC(N)C(OC3OC(CN)C(O)C(O)C3O)C2O)C(O)C1N` (stereo not drawn) [Compound K404], the MIC is listed as 4-16 mg per L in data set [1] (setting [5]) and >500 mg per L in data set [2].
In the case of `CCCCCCOC1C(CO)OC(OC2C(N)CC(N)C(OC3OC(CN)C(O)C(O)C3O)C2O)C(O)C1N` (stereo not drawn) [Compound K406], the MIC is recorded as >250 mg per L in data set [3], 8-64 mg per L in data set [1] (setting [5]) and >500 mg per L in data set [2].
In the case of `CCCCCCCOC1C(CO)OC(OC2C(N)CC(N)C(OC3OC(CN)C(O)C(O)C3O)C2O)C(O)C1N` (stereo not drawn) [Compound K407], the MIC is on record as >250 mg per L in data set [3], 125 mg per L in data set [1] and 125 mg per L in data set [2].
For `CCCCCCCCCOC1C(CO)OC(OC2C(N)CC(N)C(OC3OC(CN)C(O)C(O)C3O)C2O)C(O)C1N` (stereo not drawn) [Compound K409], the values for the MIC in data set [3], in data set [1] (setting [5]) and in data set [2] were >250 mg per L, >250 mg per L and 62.5 mg per L, respectively.
For the compound `CCCCCCCCCCOC1C(CO)OC(OC2C(N)CC(N)C(OC3OC(CN)C(O)C(O)C3O)C2O)C(O)C1N` (stereo not drawn) [Compound K410], the MIC is >250 mg per L in data set [3], 125 mg per L in data set [1] (setting [5]) and 62.5 mg per L in data set [2].
On the same counts, the results for `CCCCCCCCCCCCOC1C(CO)OC(OC2C(N)CC(N)C(OC3OC(CN)C(O)C(O)C3O)C2O)C(O)C1N` (stereo not drawn) [Compound K412] are 125-250 mg per L, 64 mg per L and >500 mg per L.
On the same counts, the results for `CCCCCCCCCCCCCCOC1C(CO)OC(OC2C(N)CC(N)C(OC3OC(CN)C(O)C(O)C3O)C2O)C(O)C1N` (stereo not drawn) [Compound K414] are >250 mg per L, >250 mg per L and >500 mg per L.
Broadly, the cell viability is the share of living cells, or the viability signal relative to a control. On to `CCCCCCCCOC[C@H]1OC(O[C@@H]2C(N)CC(N)C(O[C@H]3OC(CN)[C@@H](O)[C@H](O)C3O)[C@@H]2O)[C@H](O)[C@H](N)C1O` (stereo partly drawn) [Compound K608], for which the “toxicity to human cervical cancer cell line HeLa” value with HeLa cells (1.0 to 1000 μg/mL, 48 h) is “not toxic”. Moreover, the “Viable Cells Percentage Compared to Control” value in the data set with HeLa cells (HeLa, 1 μg/mL, 48 h) came to 79.47%; in the data set on HeLa cells (HeLa, 10 μg/mL, 48 h) it was 107.9%; in the data set with HeLa cells (HeLa, 100 μg/mL, 48 h) it was 75.36%; with HeLa cells (HeLa, 1000 μg/mL, 48 h), 86.49%. Also, the cell viability in the data set on HeLa cells (HeLa, at all concentration) is reported as ~80%.
In the case of `CCCCOCC1OC(OC2C(N)CC(N)C(OC3OC(CN)C(O)C(O)C3O)C2O)C(O)C(N)C1OCCCC` (stereo not drawn) [Compound K4604], the results for the MIC in data set [3], in data set [1] (setting [5]) and in data set [2] were >250 mg per L, >250 mg per L and 125 mg per L, respectively.
With `CCCCCCOCC1OC(OC2C(N)CC(N)C(OC3OC(CN)C(O)C(O)C3O)C2O)C(O)C(N)C1OCCCCCC` (stereo not drawn) [Compound K4606], the MIC in data set [3] is given as >250 mg per L; in data set [1] (setting [5]), 32-125 mg per L; in data set [2], 3.9 mg per L.
For `CCCCCCCOCC1OC(OC2C(N)CC(N)C(OC3OC(CN)C(O)C(O)C3O)C2O)C(O)C(N)C1OCCCCCCC` (stereo not drawn) [Compound K4607] the same measures were 125 mg per L, 8-125 mg per L and 15.6 mg per L.
Take `CCCCCCCCCOCC1OC(OC2C(N)CC(N)C(OC3OC(CN)C(O)C(O)C3O)C2O)C(O)C(N)C1OCCCCCCCCC` (stereo not drawn) [Compound K4609]: the figures for the MIC in data set [3], in data set [1] (setting [5]) and in data set [2] were 16 mg per L, 8 mg per L and 125 mg per L, respectively.
On the same counts, the results for `CCCCCCCCCCOCC1OC(OC2C(N)CC(N)C(OC3OC(CN)C(O)C(O)C3O)C2O)C(O)C(N)C1OCCCCCCCCCC` (stereo not drawn) [Compound K4610] are 125 mg per L, 16 mg per L and >500 mg per L.
Regarding `CCCCCCCCCCCCOCC1OC(OC2C(N)CC(N)C(OC3OC(CN)C(O)C(O)C3O)C2O)C(O)C(N)C1OCCCCCCCCCCCC` (stereo not drawn) [Compound K4612], the MIC in data set [3] is recorded as >250 mg per L; in data set [1] (setting [5]), 64 mg per L; in data set [2] it was >500 mg per L.
On the same counts, the results for `CCCCCCCCCCCCCCOCC1OC(OC2C(N)CC(N)C(OC3OC(CN)C(O)C(O)C3O)C2O)C(O)C(N)C1OCCCCCCCCCCCCCC` (stereo not drawn) [Compound K4614] are >250 mg per L, >250 mg per L and >500 mg per L.
As to `Clc1ccccc1C(c1ccccc1)(c1ccccc1)n1ccnc1` [chlotrimazole], in data set [4] (setting [6]), the MIC alone was determined as 3.91 µg/mL, the “MIC K408 with azole” value amounted to 3.91 µg/mL, the “MIC with K408” value came to 0.24 mg/L and the “FIC Index (K408 with azole)” value turned out to be 0.37. In data set [4] (setting [7]), the MIC alone came to 7.81 µg/mL, the “MIC K408 with azole” value turned out to be 1.95 µg/mL, the “MIC with K408” value was determined as 0.49 mg/L and the “FIC Index (K408 with azole)” value worked out at 0.13. Also, in data set [4] (MIC of K4608 when combined with the labelled azole, one experiment), the “MIC K4608 with azole” value was 1.95 µg/mL. In data set [4] (one experiment), the “MIC with K4608” value turned out to be 3.91 µg/mL and the “FIC Index (K4608 with azole)” value is recorded as 0.19.
For the compound `OC(Cn1cncn1)(Cn1cncn1)c1ccc(F)cc1F` [fluconazole], the MIC was 250 µg/mL in data set [4] (setting [8]), 250 µg/mL in data set [4] (setting [9]) and > 250 µg/mL in data set [4] (setting [10]). Moreover, the “MIC with K408” value in data set [4] (setting [6]) was 15.63, 15.63 mg L^−1; in data set [4] (setting [7]), 15.63, 15.63 mg L^−1. Besides, the “MIC with K4608” value in data set [4] (one experiment) was 31.25 µg/mL. The “FIC Index (K408 with azole)” value is given as 0.31, 0.31 in data set [4] (setting [6]) and 0.31, 0.31 in data set [4] (setting [7]). Further, the “FIC Index (K4608 with azole)” value in data set [4] (one experiment) was 0.25.
As to `CCC(C)n1ncn(-c2ccc(N3CCN(c4ccc(OCC5COC(Cn6cncn6)(c6ccc(Cl)cc6Cl)O5)cc4)CC3)cc2)c1=O` (stereo not drawn) [itraconazole], the MIC in data set [4] (setting [8]) is 250 µg/mL; in data set [4] (setting [9]), 250 µg/mL; in data set [4] (setting [10]), > 250 µg/mL. In addition, the “MIC with K408” value in data set [4] (setting [6]) is 0.98, 0.98 mg L^−1; in data set [4] (setting [7]), 0.98, 0.98 mg L^−1. Further, the “MIC with K4608” value in data set [4] (one experiment) came out at 3.91 µg/mL. The “FIC Index (K408 with azole)” value is 0.25, 0.25 in data set [4] (setting [6]) and 0.25, 0.25 in data set [4] (setting [7]). For the same compound, the “FIC Index (K4608 with azole)” value in data set [4] (one experiment) is given as <0.52.
As to `CC[C@@H]([C@H](C)O)n1ncn(-c2ccc(N3CCN(c4ccc(OC[C@@H]5CO[C@@](Cn6cncn6)(c6ccc(F)cc6F)C5)cc4)CC3)cc2)c1=O` [posaconazole], the MIC in data set [4] (setting [8]) was 62.5 µg/mL; in data set [4] (setting [9]) it was 250 µg/mL. The “MIC with K408” value in data set [4] (setting [6]) is 0.24, 0.24 mg L^−1; in data set [4] (setting [7]) it was 0.24, 0.24 mg L^−1. In addition, the “MIC with K4608” value in data set [4] (one experiment) is 0.49 µg/mL. For the same compound, the “FIC Index (K408 with azole)” value in data set [4] (setting [6]) came out at 0.38; in data set [4] (setting [7]), 0.07. Also, the “FIC Index (K4608 with azole)” value in data set [4] (one experiment) was <0.13.
Take `C[C@@H](c1ncncc1F)[C@](O)(Cn1cncn1)c1ccc(F)cc1F` [voriconazole]: the MIC in data set [4] (setting [8]), in data set [4] (setting [9]) and in data set [4] (setting [10]) was 7.81 µg/mL in each case. Further, the “MIC with K408” value in data set [4] (setting [6]) amounted to 1.95 mg/L; in data set [4] (setting [7]) it was 0.81 mg/L. The “MIC with K4608” value in data set [4] (one experiment) came to 0.98 µg/mL. Also, the “FIC Index (K408 with azole)” value was 0.38, 0.38 in data set [4] (setting [6]) and 0.38, 0.38 in data set [4] (setting [7]). The “FIC Index (K4608 with azole)” value in data set [4] (one experiment) worked out at 0.19.
